Assay results published in ChEMBL document CHEMBL5291721, “A preclinical secondary pharmacology resource illuminates target-adverse drug reaction associations of marketed drugs” (Nat Commun, 2023).

Tests used:
[1] = biological target: T1, Equilibrative nucleoside transporter 1 (Homo sapiens, UniProt Q99808)
T1 sequence (Q99808 whole entry): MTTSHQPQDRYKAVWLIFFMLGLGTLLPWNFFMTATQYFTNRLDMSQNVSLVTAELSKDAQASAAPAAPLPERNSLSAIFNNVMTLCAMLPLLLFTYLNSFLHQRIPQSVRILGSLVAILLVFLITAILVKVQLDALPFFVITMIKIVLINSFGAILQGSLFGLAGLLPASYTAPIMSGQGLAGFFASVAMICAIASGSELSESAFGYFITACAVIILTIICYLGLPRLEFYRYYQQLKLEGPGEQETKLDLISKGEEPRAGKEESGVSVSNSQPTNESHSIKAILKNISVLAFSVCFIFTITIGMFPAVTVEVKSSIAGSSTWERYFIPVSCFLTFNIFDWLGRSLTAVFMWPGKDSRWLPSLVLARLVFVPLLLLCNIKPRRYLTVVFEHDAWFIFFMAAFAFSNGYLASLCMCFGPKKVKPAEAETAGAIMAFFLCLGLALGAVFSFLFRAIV

[2] = biological target: T2, Neuropeptide Y receptor type 1 (Homo sapiens, UniProt P25929)
T2 sequence (P25929 whole entry): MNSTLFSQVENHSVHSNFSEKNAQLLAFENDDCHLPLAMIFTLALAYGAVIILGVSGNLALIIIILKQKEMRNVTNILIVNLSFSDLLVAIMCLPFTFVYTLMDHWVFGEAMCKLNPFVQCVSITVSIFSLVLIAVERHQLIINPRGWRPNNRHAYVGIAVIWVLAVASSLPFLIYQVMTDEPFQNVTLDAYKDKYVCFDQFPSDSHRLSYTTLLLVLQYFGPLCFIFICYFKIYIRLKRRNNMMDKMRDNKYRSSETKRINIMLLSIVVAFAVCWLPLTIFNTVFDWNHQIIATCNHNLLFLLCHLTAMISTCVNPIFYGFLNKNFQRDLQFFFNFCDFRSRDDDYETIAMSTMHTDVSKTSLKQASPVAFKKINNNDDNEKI

[3] = biological target: T3, Thromboxane A2 receptor (Homo sapiens, UniProt P21731)
T3 sequence (P21731 whole entry): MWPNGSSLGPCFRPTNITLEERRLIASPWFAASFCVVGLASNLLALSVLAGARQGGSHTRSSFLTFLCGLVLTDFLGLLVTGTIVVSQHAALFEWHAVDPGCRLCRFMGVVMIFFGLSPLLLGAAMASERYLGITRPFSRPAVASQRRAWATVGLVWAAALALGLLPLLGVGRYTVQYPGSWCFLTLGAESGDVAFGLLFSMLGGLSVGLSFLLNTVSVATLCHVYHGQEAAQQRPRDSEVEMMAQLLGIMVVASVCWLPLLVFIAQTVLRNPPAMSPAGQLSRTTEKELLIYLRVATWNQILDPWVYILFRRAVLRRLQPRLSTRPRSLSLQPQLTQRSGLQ

[4] = biological target: T4, B2 bradykinin receptor (Homo sapiens, UniProt P30411)
T4 sequence (P30411 whole entry): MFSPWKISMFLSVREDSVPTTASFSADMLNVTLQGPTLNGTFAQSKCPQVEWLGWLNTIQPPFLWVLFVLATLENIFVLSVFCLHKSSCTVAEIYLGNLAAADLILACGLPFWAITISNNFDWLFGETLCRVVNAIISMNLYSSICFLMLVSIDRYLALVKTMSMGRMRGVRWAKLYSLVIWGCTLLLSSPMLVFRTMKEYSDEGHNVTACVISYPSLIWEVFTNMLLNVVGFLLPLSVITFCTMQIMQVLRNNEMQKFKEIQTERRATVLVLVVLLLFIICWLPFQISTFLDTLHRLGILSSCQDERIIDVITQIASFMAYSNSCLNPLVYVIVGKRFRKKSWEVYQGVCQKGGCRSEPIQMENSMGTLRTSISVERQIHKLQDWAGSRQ

[5] = biological target: Muscarinic acetylcholine receptor M3 (Homo sapiens, UniProt P20309)
Sequence of Muscarinic acetylcholine receptor M3 (P20309 whole entry): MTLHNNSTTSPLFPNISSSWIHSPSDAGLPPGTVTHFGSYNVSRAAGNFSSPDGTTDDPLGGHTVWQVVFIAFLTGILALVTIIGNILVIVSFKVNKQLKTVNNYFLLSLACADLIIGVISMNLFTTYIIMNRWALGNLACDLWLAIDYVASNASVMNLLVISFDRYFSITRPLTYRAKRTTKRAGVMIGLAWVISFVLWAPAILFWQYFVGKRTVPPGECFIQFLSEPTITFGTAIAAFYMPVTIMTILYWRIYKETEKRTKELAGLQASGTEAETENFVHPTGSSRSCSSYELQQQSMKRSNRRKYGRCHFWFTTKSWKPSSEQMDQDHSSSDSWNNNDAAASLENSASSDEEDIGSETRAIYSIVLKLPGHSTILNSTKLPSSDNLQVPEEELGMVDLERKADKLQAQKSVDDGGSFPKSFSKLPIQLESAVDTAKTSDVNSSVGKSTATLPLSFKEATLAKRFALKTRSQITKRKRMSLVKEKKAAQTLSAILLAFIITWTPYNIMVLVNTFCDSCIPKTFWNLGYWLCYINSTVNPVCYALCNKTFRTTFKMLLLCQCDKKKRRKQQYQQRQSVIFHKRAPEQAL

[6] = biological target: T5, Alpha-2A adrenergic receptor (Homo sapiens, UniProt P08913); format: functional, cell-based
T5 sequence (P08913 whole entry): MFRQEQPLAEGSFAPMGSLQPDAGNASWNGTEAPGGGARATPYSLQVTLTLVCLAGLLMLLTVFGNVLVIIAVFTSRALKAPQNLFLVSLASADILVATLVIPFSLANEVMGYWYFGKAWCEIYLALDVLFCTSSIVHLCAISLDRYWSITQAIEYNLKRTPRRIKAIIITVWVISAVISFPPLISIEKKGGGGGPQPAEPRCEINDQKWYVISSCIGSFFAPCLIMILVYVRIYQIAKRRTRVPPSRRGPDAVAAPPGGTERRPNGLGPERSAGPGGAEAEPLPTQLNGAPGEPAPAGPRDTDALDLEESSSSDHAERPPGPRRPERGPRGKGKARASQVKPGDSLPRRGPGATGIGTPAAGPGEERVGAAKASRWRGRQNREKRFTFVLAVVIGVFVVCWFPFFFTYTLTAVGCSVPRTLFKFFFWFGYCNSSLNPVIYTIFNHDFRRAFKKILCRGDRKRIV

[7] = biological target: T6, Prostaglandin G/H synthase 1 (Rattus norvegicus, UniProt Q63921); format: functional
T6 sequence (Q63921 whole entry): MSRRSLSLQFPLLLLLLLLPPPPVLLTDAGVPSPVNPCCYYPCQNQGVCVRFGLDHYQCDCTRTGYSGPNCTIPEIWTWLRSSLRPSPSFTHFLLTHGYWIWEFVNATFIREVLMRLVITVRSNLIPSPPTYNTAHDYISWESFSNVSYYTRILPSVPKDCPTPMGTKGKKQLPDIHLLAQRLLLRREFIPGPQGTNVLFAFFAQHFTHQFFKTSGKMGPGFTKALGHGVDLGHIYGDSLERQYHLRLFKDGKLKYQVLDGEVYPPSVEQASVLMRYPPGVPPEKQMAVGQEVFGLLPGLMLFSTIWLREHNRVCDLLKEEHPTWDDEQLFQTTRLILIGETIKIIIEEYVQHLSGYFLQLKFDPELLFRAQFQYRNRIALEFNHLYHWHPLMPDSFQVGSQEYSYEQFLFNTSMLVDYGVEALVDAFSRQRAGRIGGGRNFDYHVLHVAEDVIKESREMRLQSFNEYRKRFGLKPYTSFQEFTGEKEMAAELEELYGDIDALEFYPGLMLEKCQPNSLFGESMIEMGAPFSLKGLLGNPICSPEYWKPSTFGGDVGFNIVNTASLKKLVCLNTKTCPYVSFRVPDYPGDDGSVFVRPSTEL

[8] = biological target: Sodium-dependent dopamine transporter (Homo sapiens, UniProt Q01959)
Sequence of Sodium-dependent dopamine transporter (Q01959 whole entry): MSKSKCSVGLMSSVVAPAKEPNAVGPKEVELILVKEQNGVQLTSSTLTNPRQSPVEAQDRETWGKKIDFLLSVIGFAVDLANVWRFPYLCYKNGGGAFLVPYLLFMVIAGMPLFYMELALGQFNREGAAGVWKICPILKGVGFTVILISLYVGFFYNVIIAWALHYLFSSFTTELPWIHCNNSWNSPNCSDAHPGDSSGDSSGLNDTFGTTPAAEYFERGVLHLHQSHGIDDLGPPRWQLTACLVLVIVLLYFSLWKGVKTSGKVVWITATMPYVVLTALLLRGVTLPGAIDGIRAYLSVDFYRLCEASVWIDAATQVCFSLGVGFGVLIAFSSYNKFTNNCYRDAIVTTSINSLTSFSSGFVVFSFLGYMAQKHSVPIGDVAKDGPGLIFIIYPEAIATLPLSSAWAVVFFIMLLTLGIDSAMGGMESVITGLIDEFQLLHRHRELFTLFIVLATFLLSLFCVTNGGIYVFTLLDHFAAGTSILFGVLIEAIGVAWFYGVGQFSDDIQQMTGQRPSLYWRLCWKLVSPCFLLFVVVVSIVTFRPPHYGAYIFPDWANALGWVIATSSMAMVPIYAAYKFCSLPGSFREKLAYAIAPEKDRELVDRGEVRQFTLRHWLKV

[9] = biological target: 5-hydroxytryptamine receptor 2A (Homo sapiens, UniProt P28223); format: functional, cell-based
Sequence of 5-hydroxytryptamine receptor 2A (P28223 whole entry): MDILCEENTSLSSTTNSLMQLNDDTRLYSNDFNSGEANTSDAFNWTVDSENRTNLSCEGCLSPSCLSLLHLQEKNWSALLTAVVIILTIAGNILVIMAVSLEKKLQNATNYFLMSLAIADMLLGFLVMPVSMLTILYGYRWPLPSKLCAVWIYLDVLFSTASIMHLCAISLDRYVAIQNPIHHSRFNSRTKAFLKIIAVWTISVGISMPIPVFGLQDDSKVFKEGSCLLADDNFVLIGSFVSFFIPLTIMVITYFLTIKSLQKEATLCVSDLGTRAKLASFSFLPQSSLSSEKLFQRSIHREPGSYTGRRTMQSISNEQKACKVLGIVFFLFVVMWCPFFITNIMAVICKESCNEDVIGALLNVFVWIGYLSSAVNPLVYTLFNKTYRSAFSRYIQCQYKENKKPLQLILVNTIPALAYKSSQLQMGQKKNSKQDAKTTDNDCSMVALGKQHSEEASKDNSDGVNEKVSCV

[10] = biological target: Cannabinoid receptor 1 (Homo sapiens, UniProt P21554); format: functional, cell-based
Sequence of Cannabinoid receptor 1 (P21554 whole entry): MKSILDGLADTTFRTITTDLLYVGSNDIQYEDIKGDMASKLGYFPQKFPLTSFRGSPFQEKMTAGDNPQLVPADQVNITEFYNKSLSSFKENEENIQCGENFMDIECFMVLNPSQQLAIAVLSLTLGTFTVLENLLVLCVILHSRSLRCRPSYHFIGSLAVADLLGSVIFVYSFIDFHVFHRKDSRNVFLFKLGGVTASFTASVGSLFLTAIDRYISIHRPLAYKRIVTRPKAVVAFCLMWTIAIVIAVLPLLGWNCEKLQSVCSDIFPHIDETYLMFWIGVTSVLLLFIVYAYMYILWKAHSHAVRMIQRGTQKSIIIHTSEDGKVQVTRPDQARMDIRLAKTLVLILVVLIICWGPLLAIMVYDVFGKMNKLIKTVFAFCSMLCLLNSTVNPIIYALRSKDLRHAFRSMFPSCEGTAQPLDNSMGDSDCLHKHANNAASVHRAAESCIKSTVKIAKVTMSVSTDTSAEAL
Further: assay procedure not described here.

SMILES	AC50 [1] [µM]	AC50 [2] [µM]	AC50 [3] [µM]	AC50 [4] [µM]	AC50 [5] [µM]	AC50 [6] [µM]	AC50 [7] [µM]	AC50 [8] [µM]	AC50 [9] [µM]	AC50 [10] [µM]
NS(=O)(=O)c1cc2c(cc1C(F)(F)F)NC(Cc1ccccc1)NS2(=O)=O (configuration not stated) [BENDROFLUMETHIAZIDE]	> 30	> 10	> 10	> 10	> 30	> 10	> 10	3.2	> 10	
C=CC1=C(C(=O)O)N2C(=O)[C@@H](NC(=O)/C(=N\OCC(=O)O)c3csc(N)n3)[C@H]2SC1 [CEFIXIME]	> 30	> 30		> 30		> 30	> 30	> 30	> 30	> 30
N[C@H](Cc1cc(I)c(Oc2cc(I)c(O)c(I)c2)c(I)c1)C(=O)O [DEXTROTHYROXINE]	> 30	> 30	21.9	> 30	> 30	> 10	> 30	> 30		> 30
C[C@@H]1C[C@H]2[C@@H]3C[C@H](F)C4=CC(=O)C=C[C@]4(C)[C@@]3(F)[C@@H](O)C[C@]2(C)[C@H]1C(=O)CO [DIFLUCORTOLONE]							> 30	> 30	> 30	
COC(=O)N[C@@H](C)CNc1nccc(-c2cn(C(C)C)nc2-c2cc(Cl)cc(NS(C)(=O)=O)c2F)n1 [ENCORAFENIB]	25.9	> 30	> 30	> 30	8.7	> 30	> 30	> 30	> 30	
Clc1ccc2c(c1)C(c1ccccc1)=NCc1nncn1-2 [ESTAZOLAM]	> 30	> 30	> 30	> 30	> 30	> 10	> 30	> 30		> 30
Clc1ccc(C(Cn2ccnc2)OCc2ccc(Sc3ccccc3)cc2)c(Cl)c1 (configuration not stated) [FENTICONAZOLE]	> 30	30	> 30	> 30	21	> 30	30			1.3
Nc1nc(F)nc2c1ncn2[C@@H]1O[C@H](COP(=O)(O)O)[C@@H](O)[C@@H]1O [FLUDARABINE PHOSPHATE]	> 30	> 30	> 30	> 30	> 30	> 30	> 30	> 30	> 30	
CC#CCn1c(N2CCC[C@@H](N)C2)nc2c1c(=O)n(Cc1nc(C)c3ccccc3n1)c(=O)n2C [LINAGLIPTIN]	> 30	> 30	> 30	> 30	6.5	> 10	> 30	> 30		
